Data from patent EP4741380A1, “ISOXAZOLINE COMPOUND AND USE” (priority 2024, dated 2025).
Read-outs that look alike come from different tables or passages of the source.

What was measured:
[1] = test system: mites; assay: Mite killing efficacy test with an in vitro model
Experimental: Mite collection: Live mites were gently picked up from a cage box with cotton swabs or small tweezers, 17-26 live mites per group.
Drug treatment and detection method: 100 µL of a drug solution with a different concentration (drug solution prepared by 3% DMSO solution + 97% water and having a target final concentration of 30 µM) was aspirated with a pipette and added to a 24-well plate for each group, ensuring full contact between the drug and the mites. The mites were separately incubated at normal temperature for 5 min, transferred from each plate to another dry 24-well plate with the top sealed, and air-dried for about 1 h. Mite actions were observed, and the number of dead mites/the total number of mites was recorded. Then, the 24-well plate containing the mites was cultured at room temperature and relatively high humidity. The number of dead mites/the total number of mites was counted separately after 1 h, 2 h, 4 h, 6 h, 8 h, 22 h, and 24 h (time points after drug addition), and mite mortality rates were calculated. The project ended 24 h after drug addition.
At a corresponding time point, a mite mortality rate greater than or equal to 90% is denoted as "+++", a mite mortality rate less than 90% and greater than or equal to 50% is denoted as "++", and a mite mortality rate less than 50% is denoted as "+".

[2] = In vivo pharmacokinetic evaluation in mice; parameters: species or system ICR mice; settings: ICR, mouse, plasma; for AUC: read-out: AUC^1-24 h
Experimental: 1. Drug preparation: 5% DMSO + 10% macrogol 15 hydroxystearate (BASF) + 85% saline (where drug solutions have a final concentration of 1.2 mg/mL for the IV group and 3 mg/mL for the PO group). 2. Experimental animals: Each group included three mice (ICR mice, SPF grade). 3. Administration method: The body weight was measured before administration, and the dose was calculated according to the body weight. The mice were administered through intravenous injection or oral gavage. 4. Blood collection: After administration, blood samples were collected in 0.083 h, 0.25 h, 0.5 h, 1 h, 2 h, 4 h, 6 h, 8 h, and 24 h. The blood samples were collected via the cheek. Each sample included about 0.05 mL of blood anticoagulated with EDTA-2K. The blood samples were placed on wet ice after collection. 5. Sample treatment: The blood samples were placed on ice after collection and centrifuged within 1 h to obtain plasma (centrifugation conditions: 6000 g, 3 min, 2-8°C). Plasma samples were stored in a -80°C refrigerator before analysis. 6. Data processing: Pharmacokinetic parameters were calculated using Phoenix WinNonlin 8.2.0 based on plasma concentration data at different time points.

[3] = 30 µM drug solution, 4 h after drug addition
[4] = 30 µM drug solution, 24 h after drug addition
[5] = 30 µM drug solution, 4 h after drug addition, read-out: Mite Mortality Rate 4 h
[6] = 30 µM drug solution, 24 h after drug addition, read-out: Mite Mortality Rate 24 h

| SMILES | mortality at 30 µM [1, 5] | mortality at 30 µM [1, 6] | other results |
| --- | --- | --- | --- |
| Cc1cc(C2=NOC(c3cc(Cl)cc(Cl)c3)(C(F)(F)F)C2)ccc1C(=O)NCC(=O)NC1CC1 (stereo not shown) [Example 39 (Comparative Example 1), N-(2-(cyclopropylamino)-2-oxoethyl)-4-(5-(3,5-dichlorophenyl)-5-(trifluoromethyl)-4,5-dihydroisoxazol-3-yl)-2-methylbenzamide, reference compound] | – | – | mortality at 30 µM ([1]; 4 h, read-out: Mite Mortality Rate 4 h): > 90%; mortality at 30 µM ([1]; 24 h, read-out: Mite Mortality Rate 24 h): > 90%; clearance ([2]; IV (6 mg/kg)): 2.06 mL/min/kg; half-life ([2]; IV (6 mg/kg)): 738 min; AUC ([2]; IV (6 mg/kg)): 37.1 µg·h/mL; C0 ([2]; IV (6 mg/kg), read-out: C0): 7800 ng/mL; half-life ([2]; PO (30 mg/kg)): 708 min; AUC ([2]; PO (30 mg/kg)): 173 µg·h/mL; Cmax ([2]; PO (30 mg/kg), read-out: Cmax): 12300 ng/mL; Tmax ([2]; PO (30 mg/kg), read-out: Tmax): 3.33 h; Vd ([2]; in vivo, IV (6 mg/kg), read-out: Vss): 1.97 L/kg; bioavailability ([2]; PO (30 mg/kg) vs IV (6 mg/kg)): 93.1% |
| Cc1cc(C2=NOC(c3cc(Cl)cc(Cl)c3)(C(F)(F)F)C2)c(F)cc1C(=O)NCC(=O)NCC(F)(F)F (stereo not shown) [Example 042] | – | – | Mite Mortality Rate 4 h [1, 3]: +++ (a mite mortality rate greater than or equal to 90% is denoted as "+++"); Mite Mortality Rate 24 h [1, 4]: +++ (a mite mortality rate greater than or equal to 90% is denoted as "+++") |
| Cc1cc(C2=NOC(c3cc(Cl)cc(Cl)c3)(C(F)(F)F)C2)ccc1C(=O)NCC(=O)N1CC(F)(C(F)(F)F)C1 (stereo not shown) [Example 025, 4-(5-(3,5-dichlorophenyl)-5-(trifluoromethyl)-4,5-dihydroisoxazol-3-yl)-N-(2-(3-fluoro-3-(trifluoromethyl)azetidin-1-yl)-2-oxoethyl)-2-methylbenzamide] | < 50% | < 50% | – |
| Cc1cc(C2=NOC(c3cc(Cl)cc(Cl)c3)(C(F)(F)F)C2)ccc1C(=O)NCC(=O)N1CCC1C(F)(F)F (stereo not shown) [Example 006, 4-(5-(3,5-dichlorophenyl)-5-(trifluoromethyl)-4,5-dihydroisoxazol-3-yl)-2-methyl-N-(2-oxo-2-(2-(trifluoromethyl)azetidin-1-yl)ethyl)benzamide] | < 50% | > 90% | – |
| Cc1cc(C2=NOC(c3cc(Cl)cc(Cl)c3)(C(F)(F)F)C2)ccc1C(=O)NCC(=O)N1CC(O)(C(F)(F)F)C1 (stereo not shown) [Example 014, 4-(5-(3,5-dichlorophenyl)-5-(trifluoromethyl)-4,5-dihydroisoxazol-3-yl)-N-(2-(3-hydroxy-3-(trifluoromethyl)azetidin-1-yl)-2-oxoethyl)-2-methylbenzamide] | < 50% | < 50% | – |
| Cc1cc(C2=NOC(c3cc(Cl)cc(Cl)c3)(C(F)(F)F)C2)ccc1C(=O)NCC(=O)NC1(C(F)(F)F)CC1 (stereo not shown) [Example 010, 4-(5-(3,5-dichlorophenyl)-5-(trifluoromethyl)-4,5-dihydroisoxazol-3-yl)-2-methyl-N-(2-oxo-2-((1-(trifluoromethyl)cyclopropyl)amino)ethyl)benzamide] | 50 to 90% | > 90% | – |
| Cc1cc(C2=NOC(c3cc(Cl)cc(Cl)c3)(C(F)(F)F)C2)ccc1C(=O)NCC(=O)N1CC(F)(F)C1 (stereo not shown) [Example 022, 4-(5-(3,5-dichlorophenyl)-5-(trifluoromethyl)-4,5-dihydroisoxazol-3-yl)-N-(2-(3,3-difluoroazetidin-1-yl)-2-oxoethyl)-2-methylbenzamide] | < 50% | 50 to 90% | – |
| Cc1c(C(=O)NCC(=O)NCC(F)(F)F)ccc(C2=NOC(c3cc(Cl)cc(Cl)c3)(C(F)(F)F)C2)c1F (stereo not shown) [Example 044] | – | – | Mite Mortality Rate 4 h [1, 3]: +++ (a mite mortality rate greater than or equal to 90% is denoted as "+++"); Mite Mortality Rate 24 h [1, 4]: +++ (a mite mortality rate greater than or equal to 90% is denoted as "+++") |
| Cc1cc(C2=NOC(c3cc(F)c(Cl)c(Cl)c3)(C(F)(F)F)C2)ccc1C(=O)NCC(=O)NC1(C(F)(F)F)CC1 (stereo not shown) [Example 028, 4-(5-(3,4-dichloro-5-fluorophenyl)-5-(trifluoromethyl)-4,5-dihydroisoxazol-3-yl)-2-methyl-N-(2-oxo-2-((1-(trifluoromethyl)cyclopropyl)amino)ethyl)benzamide] | 50 to 90% | > 90% | – |
| Cc1cc(C2=NOC(c3cc(Cl)cc(C(F)(F)F)c3)(C(F)(F)F)C2)ccc1C(=O)NCC(=O)N1CC(F)(CF)C1 (stereo not shown) [Example 013, 4-(5-(3-chloro-5-(trifluoromethyl)phenyl)-5-(trifluoromethyl)-4,5-dihydroisoxazol-3-yl)-N-(2-(3-fluoro-3-(fluoromethyl)azetidin-1-yl)-2-oxoethyl)-2-methylbenzamide] | > 90% | > 90% | – |
| Cc1cc(C2=NOC(c3cc(Cl)cc(C(F)(F)F)c3)(C(F)(F)F)C2)ccc1C(=O)NCC(=O)NC1(C(F)(F)F)CC1 (racemic) [Example 007, 4-(5-(3-chloro-5-(trifluoromethyl)phenyl)-5-(trifluoromethyl)-4,5-dihydroisoxazol-3-yl)-2-methy 1-N-(2-oxo-2-((1-(trifluoromethyl)cyclopropyl)amino)ethyl)benzamide] | – | – | Mite Mortality Rate 4 h [1, 3]: ++ (a mite mortality rate less than 90% and greater than or equal to 50% is denoted as "++"); Mite Mortality Rate 24 h [1, 4]: +++ (a mite mortality rate greater than or equal to 90% is denoted as "+++") |
| Cc1cc(C2=NOC(c3cc(Cl)c(F)c(Cl)c3)(C(F)(F)F)C2)ccc1C(=O)NCC(=O)N1CC(F)(CF)C1 (stereo not shown) [Example 005, 4-(5-(3,5-dichloro-4-fluorophenyl)-5-(trifluoromethyl)-4,5-dihydroisoxazol-3-yl)-N-(2-(3-fluoro-3-(fluoromethyl)azetidin-1-yl)-2-oxoethyl)-2-methylbenzamide] | 50 to 90% | > 90% | – |
| Cc1cc(C2=NOC(c3cc(Cl)cc(Cl)c3)(C(F)(F)F)C2)c(F)cc1C(=O)NCC(=O)NC1CC1 (stereo not shown) [Example 041, N-(2-(cyclopropylamino)-2-oxoethyl)-4-(5-(3,5-dichlorophenyl)-5-(trifluoromethyl)-4,5-dihydroisoxazol-3-yl)-5-fluoro-2-methylbenzamide] | > 90% | > 90% | – |
| Cc1cc(C2=NOC(c3cc(Cl)cc(Cl)c3)(C(F)(F)F)C2)ccc1C(=O)NCC1(NCC(F)(F)F)COC1 (stereo not shown) [Example 015] | – | – | Mite Mortality Rate 4 h [1, 3]: + (a mite mortality rate less than 50% is denoted as "+"); Mite Mortality Rate 24 h [1, 4]: + (a mite mortality rate less than 50% is denoted as "+") |
| Cc1cc(C2=NOC(c3cc(Cl)cc(Cl)c3)(C(F)(F)F)C2)ccc1C(=O)N[C@H](C)C(=O)NC1(C(F)(F)F)CC1 (stereo partly drawn) [Example 035, 4-(5-(3,5-dichlorophenyl)-5-(trifluoromethyl)-4,5-dihydroisoxazol-3-yl)-2-methyl-N-((R)-1-oxo-1-((1-(trifluoromethyl)cyclopropyl)amino)propan-2-yl)benzamide] | < 50% | 50 to 90% | – |
| Cc1cc(C2=NO[C@](c3cc(Cl)cc(C(F)(F)F)c3)(C(F)(F)F)C2)ccc1C(=O)NCC(=O)NC1(C(F)(F)F)CC1 [Example 009, (R)-4-(5-(3-chloro-5-(trifluoromethyl)phenyl)-5-(trifluoromethyl)-4,5-dihydroisoxazol-3-yl)-2-m ethyl-N-(2-oxo-2-((1-(trifluoromethyl)cyclopropyl)amino)ethyl)benzamide] | < 50% | < 50% | – |
| Cc1cc(C2=NOC(c3cc(Cl)cc(Cl)c3)(C(F)(F)F)C2)ccc1C(=O)NCC(=O)N1CC(F)(C#N)C1 (stereo not shown) [Example 021, N-(2-(3-cyano-3-fluoroazetidin-1-yl)-2-oxoethyl)-4-(5-(3,5-dichlorophenyl)-5-(trifluoromethyl)-4,5-dihydroisoxazol-3-yl)-2-methylbenzamide] | < 50% | < 50% | – |
| Cc1cc(C2=NO[C@](c3cc(Cl)cc(Cl)c3)(C(F)(F)F)C2)ccc1C(=O)NCC(=O)NC1(C(F)(F)F)CC1 [Example 012, (R)-4-(5-(3,5-dichlorophenyl)-5-(trifluoromethyl)-4,5-dihydroisoxazol-3-yl)-2-methyl-N-(2-oxo-2-((1-(trifluoromethyl)cyclopropyl)amino)ethyl)benzamide] | < 50% | < 50% | – |
